Reference: PubChem BioAssay (NCI)
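In this assay, cells in 96-well plates receive the compound at five concentrations for 48 hours. Endpoints are linearly interpolated between the surrounding concentrations. GI50 = concentration required for 50% inhibition of growth. TGI: concentration producing complete growth inhibition.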

What was measured:
Assay in all cases: inhibition of tumour cell growth, NCI panel, 48 h
786-0 renal = test system: 786-0 renal
A498 renal = test system: A498 renal
A549 NSCLC = test system: A549 NSCLC
ACHN renal = test system: ACHN renal
BT-549 breast = test system: BT-549 breast
CAKI-1 renal = test system: CAKI-1 renal
CCRF-CEM leukemia = test system: CCRF-CEM leukemia
COLO 205 colon = test system: COLO 205 colon
DU-145 prostate = test system: DU-145 prostate
EKVX NSCLC = test system: EKVX NSCLC
HCC-2998 colon = test system: HCC-2998 colon
HCT-116 colon = test system: HCT-116 colon
HCT-15 colon = test system: HCT-15 colon
HL-60(TB) leukemia = test system: HL-60(TB) leukemia
HOP-62 NSCLC = test system: HOP-62 NSCLC
HOP-92 NSCLC = test system: HOP-92 NSCLC
HT29 colon = test system: HT29 colon
IGROV1 ovarian = test system: IGROV1 ovarian
K-562 leukemia = test system: K-562 leukemia
KM12 colon = test system: KM12 colon
M14 melanoma = test system: M14 melanoma
MALME-3M melanoma = test system: MALME-3M melanoma
MCF7 breast = test system: MCF7 breast
MDA-MB-435 = test system: MDA-MB-435
MDA-MB-468 breast = test system: MDA-MB-468 breast
MOLT-4 leukemia = test system: MOLT-4 leukemia
NCI-H226 lung = test system: NCI-H226 lung
NCI-H23 lung = test system: NCI-H23 lung
NCI-H460 lung = test system: NCI-H460 lung
NCI-H522 lung = test system: NCI-H522 lung
NCI/ADR-RES ovarian = test system: NCI/ADR-RES ovarian
OVCAR-3 ovarian = test system: OVCAR-3 ovarian
OVCAR-4 ovarian = test system: OVCAR-4 ovarian
OVCAR-5 ovarian = test system: OVCAR-5 ovarian
OVCAR-8 ovarian = test system: OVCAR-8 ovarian
PC-3 prostate = test system: PC-3 prostate
RPMI-8226 leukemia = test system: RPMI-8226 leukemia
RXF 393 renal = test system: RXF 393 renal
SF-268 CNS = test system: SF-268 CNS
SF-295 CNS = test system: SF-295 CNS
SF-539 CNS = test system: SF-539 CNS
SK-MEL-2 melanoma = test system: SK-MEL-2 melanoma
SK-MEL-28 melanoma = test system: SK-MEL-28 melanoma
SK-MEL-5 melanoma = test system: SK-MEL-5 melanoma
SK-OV-3 ovarian = test system: SK-OV-3 ovarian
SN12C renal = test system: SN12C renal
SNB-19 CNS = test system: SNB-19 CNS
SNB-75 CNS = test system: SNB-75 CNS
SR leukemia = test system: SR leukemia
T-47D breast = test system: T-47D breast
TK-10 renal = test system: TK-10 renal
U251 CNS = test system: U251 CNS
UACC-257 melanoma = test system: UACC-257 melanoma
UACC-62 melanoma = test system: UACC-62 melanoma
UO-31 renal = test system: UO-31 renal

## COc1ccc(-c2ccnc(SCc3cc4ccccc4[nH]c3=O)n2)cc1OC
786-0 renal
  GI50: 14.5 µM
  TGI: 37.9 µM
A498 renal
  GI50: 17.8 µM
  TGI: 50.9 µM
A549 NSCLC
  GI50: 23.6 µM
  TGI: > 100 µM
ACHN renal
  GI50: 13.5 µM
  TGI: 27.8 µM
BT-549 breast
  GI50: 7.58 µM
  TGI: 34.8 µM
CAKI-1 renal
  GI50: 8.22 µM
  TGI: 25.4 µM
CCRF-CEM leukemia
  GI50: 34.3 µM
  TGI: > 100 µM
COLO 205 colon
  GI50: 33.9 µM
  TGI: > 100 µM
DU-145 prostate
  GI50: 18.1 µM
  TGI: 71.9 µM
EKVX NSCLC
  GI50: 14.6 µM
  TGI: 53.5 µM
HCC-2998 colon
  GI50: 21.4 µM
  TGI: 58.8 µM
HCT-116 colon
  GI50: 21.2 µM
  TGI: > 100 µM
HCT-15 colon
  GI50: 20 µM
  TGI: > 100 µM
HL-60(TB) leukemia
  GI50: 99.6 µM
  TGI: > 100 µM
HOP-62 NSCLC
  GI50: 16.4 µM
  TGI: 45.8 µM
HOP-92 NSCLC
  GI50: 1.84 µM
  TGI: 14.9 µM
HT29 colon
  GI50: 18.8 µM
  TGI: 40.6 µM
IGROV1 ovarian
  GI50: 16.8 µM
  TGI: 39.8 µM
K-562 leukemia
  GI50: 5.48 µM
  TGI: > 100 µM
KM12 colon
  GI50: 30.8 µM
  TGI: > 100 µM
M14 melanoma
  GI50: 40.3 µM
  TGI: > 100 µM
MALME-3M melanoma
  GI50: 23.1 µM
  TGI: 54.4 µM
MCF7 breast
  GI50: 26.9 µM
  TGI: > 100 µM
MDA-MB-435
  GI50: 30.6 µM
  TGI: > 100 µM
MDA-MB-468 breast
  GI50: 4.27 µM
  TGI: 34 µM
MOLT-4 leukemia
  GI50: 7.17 µM
  TGI: > 100 µM
NCI-H226 lung
  GI50: 13 µM
  TGI: 37.2 µM
NCI-H23 lung
  GI50: 17.4 µM
  TGI: 42.6 µM
NCI-H460 lung
  GI50: 26.8 µM
  TGI: > 100 µM
NCI-H522 lung
  GI50: 18.3 µM
  TGI: 61.1 µM
NCI/ADR-RES ovarian
  GI50: 14.3 µM
  TGI: 49.8 µM
OVCAR-3 ovarian
  GI50: 19.5 µM
  TGI: 56.4 µM
OVCAR-4 ovarian
  GI50: 19.1 µM
  TGI: 84.6 µM
OVCAR-5 ovarian
  GI50: 12.7 µM
  TGI: 30.8 µM
OVCAR-8 ovarian
  GI50: 23.2 µM
  TGI: > 100 µM
PC-3 prostate
  GI50: 16.5 µM
  TGI: 50.8 µM
RPMI-8226 leukemia
  GI50: 16.3 µM
  TGI: > 100 µM
RXF 393 renal
  GI50: 5.45 µM
  TGI: 27.6 µM
SF-268 CNS
  GI50: 20.8 µM
  TGI: > 100 µM
SF-295 CNS
  GI50: 13.7 µM
  TGI: 34 µM
SF-539 CNS
  GI50: 12.4 µM
  TGI: 27.4 µM
SK-MEL-2 melanoma
  GI50: 16.9 µM
  TGI: 50.4 µM
SK-MEL-28 melanoma
  GI50: 17.3 µM
  TGI: 38.5 µM
SK-MEL-5 melanoma
  GI50: 13 µM
  TGI: 42.8 µM
SK-OV-3 ovarian
  GI50: 19.9 µM
  TGI: 41.7 µM
SN12C renal
  GI50: 12.4 µM
  TGI: 34.9 µM
SNB-19 CNS
  GI50: 16.9 µM
  TGI: 54 µM
SNB-75 CNS
  GI50: 4.36 µM
  TGI: 23.6 µM
SR leukemia
  GI50: 18.3 µM
  TGI: > 100 µM
T-47D breast
  GI50: 11 µM
  TGI: 38.9 µM
TK-10 renal
  GI50: 17.5 µM
  TGI: 58.9 µM
U251 CNS
  GI50: 19.9 µM
  TGI: > 100 µM
UACC-257 melanoma
  GI50: 30.6 µM
  TGI: 89.9 µM
UACC-62 melanoma
  GI50: 14.5 µM
  TGI: 41 µM
UO-31 renal
  GI50: 11.1 µM
  TGI: 26.6 µM
